# Measurements reported in US5814470A, “Melittin-related polypeptides, mixture sets and libraries thereof” (priority 1997, dated 1998).
# Experiments:
# [1] = tested on: human red blood cells (RBCs); assay: Hemolytic activity (HD50); assay type: cell-based; conditions: one hour at 37° C., OD 414 nm
# Procedure: The hemolytic activities of the polypeptide mixture sets were determined by using human red blood cells (RBCs). The cells were washed three times with phosphate-buffered saline (PBS/35 mM phosphate buffer--0.15M NaCl, pH 7.0) and resuspended in PBS. The hemolytic activity of the polypeptide sets were determined as described in Blondelle et al., Biochem. Biophys. Acta, 1202:331-336 (1993) using 96 well tissue culture plates. In brief, 100 μl of 0.5 percent RBC solution were added to an equal volume of peptides in PBS. The plates were incubated for one hour at 37° C. and the optical density (OD) of the supernatant was measured at 414 nm. The concentration in peptide necessary to lyse 50 percent RBCs (HD50) was then determined for each peptide using a sigmoidal curve fitting method (Graphpad).
# [2] = tested on: Staphylococcus aureus; conditions: no change in optical density over 18 hours; slightly different conditions; cited from earlier work
# [3] = Polypeptide conformation by CD spectroscopy (α-helix content); assay type: physicochemical; conditions: in the presence of 100 mM NaCl, 25° C.
# Procedure: The library of sets of Example 1 was examined for the ability of each set to adopt an α-helical conformation. […] In the presence of 100 mM NaCl, the percent of α-helices varied from 20 to 40 percent.
# All measurements were carried out on a Jasco J-720 circular dichroism spectropolarimeter (CD-Eaton, Md.), in conjunction with a Neslab RTE 110 waterbath and temperature controller at 25° C. (Dublin, Calif.). CD spectra were the average of a series of three to seven scans made at 0.2 nm intervals. Ellipticity was determined as means residue ellipticity, θ; the limits of error of measurements at 222 nm were ±500 (deg cm2 dmol^-1). For salt induced aggregation, stock solutions were separately prepared with 150 μM polypeptide sets in buffer (5 mM MOPS-NaOH, 100 mM NaCl).
substance,measurement,setting,value
Melittin,HD50 (concentration necessary to lyse 50 percent RBCs),[1],6 µg/mL
same,minimum inhibitory concentration (MIC),[2],25 µg/mL
same,percent of α-helices (helicity),[3],about 20%
